Consider 12 molecules from US9326984B2, “Compounds and pharmaceutical compositions for treating disorders associated with the 5-HT1A and 5-HT2A receptors” (priority 2010, dated 2016).

For test [1], the target named is T1, 5-HT2A receptors (Rattus norvegicus, UniProt P14842).
T1 construct: The assay tissue was rat cortex; from tissue; host or cells: rat cortex
Nature of the test: In vitro affinity (radioligand binding inhibition) assay, 3[H]-ketanserin, rat cortex. To be noted: for pIC50: 3[H]-ketanserin 1 nM, rat cortex, 3-3000 nM in duplicate, read-out: 5-HT2A CI50; for 5-HT2A CI50/affinity compared with the comparative compound: comparison in words versus Flibanserin (and Example 1); for inhibition at 0.3 µM / inhibition at 1 µM / inhibition at 3 µM: read-out: 5-HT2A Inhibition Percentage. The method, then: (§1) The determination of the activity of the synthesized compounds was conducted through assays assessing affinity with the 5-HT1A and 5-HT2A serotonin receptors. The assays used are based on the binding ratings of the substances being tested at different concentrations, compared to the affinity in the single concentration of the radioligands (markers) that have a specific affinity for these receptors.
(§2) These assays, known as binding assays and also known as inhibition experiments, are able to determine the affinity of a substance through the receptor, provided that this substance is soluble under the assay conditions.
(§3) In an inhibition experiment, the quantity of an inhibitor substance (non radioactive—sample or compound being tested) included in the incubation is the only variable, meaning that it is possible to determine for each test drug concentration, the binding inhibition percentage of the radioligand.
(§4) CI50 is a value defined as the concentration of an unbranded substance (test sample) required to inhibit the specific binding of the radioligand in 50% of the receptors.
(§5) The affinity assays with the 5-HT1A and 5-HT2A receptors of the compounds addressed by this invention were conducted by the Biochemical and Molecular Pharmacology Laboratory at the Biomedical Science Institute in Rio de Janeiro Federal University (UFRJ), using its own protocols.
(§6) […] The development of the experiment protocol to assess compounds with affinity for the 5-HT1A receptors was developed on the basis of the experiments conducted by Hall et al (Journal of Neurochemistry (1985) 44: 1685-1696); Mongeau et al (Brain Research (1992) 590: 229-238) and Peroutka (Journal of Neurochemistry (1986) 47: 529-540). The 5-HT2A receptors were based on the studies conducted by Johnson et al (Naunyn-Schmiedeberg's Arch. Pharmacol. (1996) 354 (2): 205-209); Leysen et al (Molecular Pharmacology (1982) 21: 301-314) and Nelson et al (Journal of Pharmacology and Experimental Therapeutics (1993) 265: 1272-1279).
(§7) In order to determine the affinity with the 5-HT2A receptors, 3[H]-ketanserin (1 nM) was used as a ligand and ketanserin (1 μM) as a non-specific ligand. The assay tissue was rat cortex. Table 1 below summarizes the CI50 values obtained for the inventive compounds presented in Examples 1 and 8. In order to determine the CI50 of these compounds, the inhibition assays were conducted using the compounds at concentrations of 3, 10, 30, 100, 300, 1000 and 3000 nM (in duplicate) for both receptors.

Test [2] deals with T2, 5-HT1A receptors (Rattus norvegicus, UniProt P19327).
T2 construct: The assay tissue was rat hippocampus; from tissue; host or cells: rat hippocampus
T2 sequence (P19327 1-422): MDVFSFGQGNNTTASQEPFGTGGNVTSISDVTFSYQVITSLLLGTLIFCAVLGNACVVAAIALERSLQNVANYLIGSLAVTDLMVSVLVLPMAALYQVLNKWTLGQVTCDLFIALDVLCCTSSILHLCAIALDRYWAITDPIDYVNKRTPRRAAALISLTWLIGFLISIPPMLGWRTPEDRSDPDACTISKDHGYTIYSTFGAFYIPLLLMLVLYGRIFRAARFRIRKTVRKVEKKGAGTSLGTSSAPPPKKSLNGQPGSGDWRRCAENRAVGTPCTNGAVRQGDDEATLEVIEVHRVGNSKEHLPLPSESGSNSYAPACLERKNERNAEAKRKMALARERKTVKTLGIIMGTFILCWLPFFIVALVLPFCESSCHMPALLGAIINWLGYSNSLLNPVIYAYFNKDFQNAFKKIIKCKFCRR
Nature of the test: In vitro affinity (radioligand binding inhibition) assay, 3[H]-8-OH-DPAT, rat hippocampus. To be noted: for pIC50: 3[H]-8-OH-DPAT 1 nM, 3-3000 nM in duplicate, read-out: 5-HT1A CI50; for pIC50 / inhibition at 0.03 µM / inhibition at 0.1 µM / inhibition at 0.3 µM: rat hippocampus; for 5-HT2A/5-HT1A CI502A/CI501A: ratio of CI50 5-HT2A to CI50 5-HT1A; for 5-HT1A CI50 compared with the comparative compound: comparison in words/fold versus Flibanserin; for inhibition at 0.03 µM: 30 nM; for inhibition at 0.03 µM / inhibition at 0.1 µM / inhibition at 0.3 µM: read-out: 5-HT1A Inhibition Percentage; for inhibition at 0.1 µM: 100 nM; for inhibition at 0.3 µM: 300 nM. How it is done:
as §1, §2, §3, §4, §5, §6
The affinity with the 5-HT1A receptors was assayed by using 3[H]-8-OH-DPAT (3[H]-8-hydroxy-N,N-dipropyl-2-aminotetraline) (1 nM) as a ligand, and 5-HT (5-hydroxytiptamine-serotonin) (10 μM) as a non-specific ligand. The assay tissue was rat hippocampus.
as §7

For test [3], the system named is 5-HT receptors. Nature of the test: In vivo efficacy test: Serotonin Syndrome Model in rats (modified Irwin method). Particulars: 15 mg/kg intraperitoneal, observed 15, 30 and 60 minutes after administration. Also on record: species or system rat. The method, then:
For the efficacy assay, the compounds addressed by this invention were submitted to the modified Irwin assay. The assays were conducted by Porsolt, using a specific protocol for evaluation.
In order to determine the in vivo efficacy of the compounds addressed by this invention, the Serotonin Syndrome Model in rats was used. The model was based in the Irwin method (Psychopharmacologia (1968), 13: 222-257), adapted to assess the effects of seroton agonists pursuant to Martin et al (Journal of Pharmacol. Meth. (1985), 13: 193-200) and Ortman et al (Naunyn-Schmiedeberg's Arch. Pharmacol (1981), 316: 225-230).
Two animals from each group were assessed through a series of separate observations. Escitalopram was used as the positive control for the study.
Behavioral and physiological alterations as well as neurotoxicity symptoms, rectal temperature and pupil diameter were recorded.
Additionally, the specific signs related to the stimulation of the 5-HT receptors were observed and quantified, being: head twitches (HT), fore paw treading (FPT), flat body posture (FBP), hind limb splay (HLS), lower lip retraction (LLR) and spontaneous tail flicks (STF) (Straub).
The observations were conducted at 15, 30 and 60 minutes after administration of the compounds being tested.
The compounds were tested as set forth in Examples 1 and 7. As the comparative compound 1,3-dihydro-1-(2-(4-(3-(trifluoromethyl)phenyl)-1-piperazinyl)ethyl)-2H-benzimidizol-2-one (Flibanserin) was used. All the compounds were administered at a dose of 15 mg/kg, intraperitoneal.
The observations of the specific stimulation data of the 5-HT receptors by each compound are presented in the graph given in FIG. 1.

As usually defined, the inhibition is the percentage by which the read-out fell short of the control.

The structures appear in SMILES notation. pIC50: −log10 of the molar value.

T1 sequence (P14842 whole entry): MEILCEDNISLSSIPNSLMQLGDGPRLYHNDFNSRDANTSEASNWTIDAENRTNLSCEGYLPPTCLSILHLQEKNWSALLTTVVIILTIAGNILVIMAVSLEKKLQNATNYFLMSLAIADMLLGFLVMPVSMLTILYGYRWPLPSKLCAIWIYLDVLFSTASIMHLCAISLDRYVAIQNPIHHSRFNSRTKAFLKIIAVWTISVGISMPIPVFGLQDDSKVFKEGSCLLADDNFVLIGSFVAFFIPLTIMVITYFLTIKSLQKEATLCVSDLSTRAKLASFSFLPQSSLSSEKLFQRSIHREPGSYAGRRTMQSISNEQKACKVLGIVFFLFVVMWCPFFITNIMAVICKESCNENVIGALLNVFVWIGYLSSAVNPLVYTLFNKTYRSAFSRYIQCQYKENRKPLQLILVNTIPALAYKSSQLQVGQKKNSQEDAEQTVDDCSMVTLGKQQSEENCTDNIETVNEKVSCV

With `O=c1[nH]c2ccccc2n1CCN1CCN(c2cccc(C(F)(F)F)c2)CC1` [Comparative Compound, 1.3-Dihydro-1-(2-(4-(3-(trifluoromethyl)phenyl)-1-piperazinyl)ethyl)-2H-benzimidizol-2-one, reference compound], the pIC50 in test [1] is 6.34. Further, in test [2], the pIC50 was 7.33 and the “5-HT2A/5-HT1A CI502A/CI501A” value came out at 9.6. The “signs of stimulation of the 5-HT receptors (HT, FPT, FBP, HLS, LLR, STF)” value (“signs” below) in test [3] is recorded as “only one presented signs of stimulation of the 5-HT receptors, which were spontaneous tail flicks”.

Regarding `O=c1c2ccccc2ncn1CCN1CCN(c2cccc(C(F)(F)F)c2)CC1` [Example 1, 3-(2-(4-(3-(trifluoromethyl)phenyl)piperazine-1-yl)ethyl)quinazoline-4 (3H)-one], in test [1], the pIC50 was 6.24 and the “5-HT2A CI50/affinity compared with the comparative compound” value is listed as “a value slightly higher than the value obtained for the comparative compounds”. Further, in test [2], the pIC50 was 7.33, the “5-HT1A CI50 compared with the comparative compound” value is “the same CI50 value as the comparative compound” and the “5-HT2A/5-HT1A CI502A/CI501A” value turned out to be 12. Also, the “signs” value in test [3] was “triggered spontaneous tail flicks (STF)”.

Consider `Cc1ccccc1N1CCN(CCn2cnc3ccccc3c2=O)CC1` [Example 2, 3-(2-(4-o-tolylpiperazine-1-yl)ethyl)quinazoline-4 (3H)-one], for which, in test [1], the inhibition at 0.3 µM worked out at 61% and the inhibition at 1 µM is 82%. Besides, in test [2], the inhibition at 0.03 µM amounted to 21% and the inhibition at 0.1 µM is 51%.

Take `Cc1cccc(N2CCN(CCn3cnc4ccccc4c3=O)CC2)c1C` [Example 3, 3-(2-(4-(2,3-dimethylphenyl)piperazine-1-yl)ethyl)quinazoline-4 (3H)-one]: in test [1], the inhibition at 0.3 µM came to 89% and the inhibition at 1 µM was 88%. In test [2], the inhibition at 0.03 µM turned out to be 47% and the inhibition at 0.1 µM is 84%.

With `O=c1c2ccccc2ncn1CCN1CCN(c2ccccc2Cl)CC1` [Example 4, 3-(2-(4-(2-chlorophenyl)piperazine-1-yl)ethyl)quinazoline-4 (3H)-one], in test [1], the inhibition at 0.3 µM turned out to be 48% and the inhibition at 1 µM was found to be 77%. In test [2], the inhibition at 0.03 µM was 22% and the inhibition at 0.1 µM turned out to be 84%.

On to `N#Cc1ccccc1N1CCN(CCn2cnc3ccccc3c2=O)CC1` [Example 5, 3-(2-(4-(2-cyanophenyl)piperazine-1-yl)ethyl)quinazoline-4 (3H)-one], for which, in test [1], the inhibition at 0.3 µM was 38% and the inhibition at 1 µM came out at 78%. Moreover, in test [2], the inhibition at 0.03 µM turned out to be 12% and the inhibition at 0.1 µM is 49%.

Consider `COc1ccccc1N1CCN(CCn2cnc3ccccc3c2=O)CC1` [Example 6, 3-(2-(4-(2-methoxyphenyl)piperazine-1-yl)ethyl)quinazoline-4 (3H)-one], for which, in test [1], the inhibition at 0.3 µM worked out at 43% and the inhibition at 1 µM amounted to 63%. In addition, in test [2], the inhibition at 0.03 µM amounted to 38% and the inhibition at 0.1 µM is 66%.

As to `CCc1nc2ccccc2c(=O)n1CCN1CCN(c2cccc(C(F)(F)F)c2)CC1` [Example 7, 2-ethyl-3-(2-(4-(3-(trifluoromethyl)phenyl)piperazine-1-yl)ethyl)quinazoline-4 (3H)-one], in test [1], the pIC50 is 6.15; the “5-HT2A CI50/affinity compared with the comparative compound” value is “greater affinity than the comparison compound and the compound in Example 1”. Besides, in test [2], the pIC50 is 6.60, the “5-HT1A CI50 compared with the comparative compound” value is on record as “five times greater” and the “5-HT2A/5-HT1A CI502A/CI501A” value is 2.7. For the same molecule, the “signs” value in test [3] was “triggered fore paw treading (FPT) and more spontaneous tail flicks (STF)”.

Consider `CCc1nc2ccccc2c(=O)n1CCN1CCN(c2cccc(C)c2C)CC1` [Example 8, 3-(2-(4-(2,3-dimethylphenyl)piperazine-1-yl)ethyl)-2-ethylquinazoline-4 (3H)-one], for which, in test [1], the inhibition at 0.3 µM stood at 67%, the inhibition at 1 µM worked out at 86% and the inhibition at 3 µM amounted to 94%. In addition, in test [2], the inhibition at 0.03 µM was 26%, the inhibition at 0.1 µM amounted to 76% and the inhibition at 0.3 µM came out at 77%.

As for `CCc1nc2ccccc2c(=O)n1CCN1CCN(c2ccccc2OC)CC1` [Example 9, 2-ethyl-3-(2-(4-(2-methoxyphenyl)piperazine-1-yl)ethyl)quinazoline-4 (3H)-one], in test [1], the inhibition at 0.3 µM was 13%, the inhibition at 1 µM came to 46% and the inhibition at 3 µM turned out to be 78%. In test [2], the inhibition at 0.03 µM stood at 17%, the inhibition at 0.1 µM came out at 46% and the inhibition at 0.3 µM was determined as 69%.

As for `CCOc1ccccc1N1CCN(CCn2c(CC)nc3ccccc3c2=O)CC1` [Example 10, 2-ethyl-3-(2-(4-(2-ethoxyphenyl)piperazine-1-yl)ethyl)quinazoline-4 (3H)-one], in test [1], the inhibition at 0.3 µM was 8%, the inhibition at 1 µM worked out at 27% and the inhibition at 3 µM was 58%. Besides, in test [2], the inhibition at 0.03 µM was 26%, the inhibition at 0.1 µM stood at 51% and the inhibition at 0.3 µM was 79%.

Take `CCc1nc2ccccc2c(=O)n1CCN1CCN(c2ccccc2Cl)CC1` [Example 11, 3-(2-(4-(2-chlorophenyl)piperazine-1-yl)ethyl)-2-ethylquinazoline-4 (3H)-one]: in test [1], the inhibition at 0.3 µM stood at 25%, the inhibition at 1 µM worked out at 52% and the inhibition at 3 µM came out at 79%. In test [2], the inhibition at 0.03 µM amounted to 5%, the inhibition at 0.1 µM worked out at 26% and the inhibition at 0.3 µM worked out at 38%.
